Source: PubChem BioAssay AID222 (DTP/NCI, 2004)
Several values for one entry are separate records, joined by “and”; a condition that tells them apart may be missing. Equal entries are not always repeated. Inconclusive results and toxic doses are left out. Rule for the calls: active = survival T/C of 150% or more; inactive = T/C below 125% in these data.

System: C57BL/6 mice, intracerebral ependymoblastoma, median survival T/C
Assay: NCI In Vivo Anticancer Drug Screen. Data for tumor model Ependymoblastoma (intracerebral) in C57BL/6 mice
Conditions: endpoint: median survival time, higher = longer survival
Method: The antitumor activity of compounds was measured in mice bearing transplantable tumors. Survival or tumor size were measured and the results are expressed as the measurement made in the treated group (T) divided by the measurement made in the vehicle treated control group (C). The tumor model used in this assay is Ependymoblastoma (intracerebral) in C57BL/6 mice

Measured: T/C

CCOC(=O)CNC(=O)CCCCSc1ncnc2nc[nH]c12
inactive: dose: 1.0 mg/kg/injection, schedule: Q01DX005 (ip), vehicle: Klucel (hydroxypropylcellulose) (HPC) 109 % of control | dose: 4.0 mg/kg/injection, schedule: Q01DX005 (ip), vehicle: saline 103 % of control | dose: 8.0 mg/kg/injection, schedule: Q01DX005 (ip), vehicle: Klucel (hydroxypropylcellulose) (HPC) 104 % of control | dose: 16.0 mg/kg/injection, schedule: Q01DX001 (ip), vehicle: Klucel (hydroxypropylcellulose) (HPC) 104 % of control and 105 % of control and 106 % of control | dose: 16.0 mg/kg/injection, schedule: Q01DX001 (oral), vehicle: Klucel (hydroxypropylcellulose) (HPC) 95 % of control and 102 % of control | dose: 16.0 mg/kg/injection, schedule: Q01DX005 (ip), vehicle: saline 95 % of control and 103 % of control | dose: 16.0 mg/kg/injection, schedule: Q01DX005 (oral), vehicle: Klucel (hydroxypropylcellulose) (HPC) 94 % of control | dose: 16.0 mg/kg/injection, schedule: Q#A X002 (ip), vehicle: Klucel (hydroxypropylcellulose) (HPC) 108 % of control | dose: 32.0 mg/kg/injection, schedule: Q01DX005 (ip), vehicle: Klucel (hydroxypropylcellulose) (HPC) 103 % of control and 117 % of control | dose: 32.0 mg/kg/injection, schedule: Q## X006 (ip), vehicle: Klucel (hydroxypropylcellulose) (HPC) 102 % of control | dose: 64.0 mg/kg/injection, schedule: Q01DX001 (ip), vehicle: Klucel (hydroxypropylcellulose) (HPC) 90 % of control and 100 % of control and 108 % of control | dose: 64.0 mg/kg/injection, schedule: Q01DX001 (oral), vehicle: Klucel (hydroxypropylcellulose) (HPC) 102 % of control and 103 % of control | dose: 64.0 mg/kg/injection, schedule: Q01DX005 (ip), vehicle: saline 102 % of control and 107 % of control | dose: 64.0 mg/kg/injection, schedule: Q01DX005 (oral), vehicle: Klucel (hydroxypropylcellulose) (HPC) 106 % of control | dose: 64.0 mg/kg/injection, schedule: Q## X006 (ip), vehicle: Klucel (hydroxypropylcellulose) (HPC) 120 % of control | dose: 64.0 mg/kg/injection, schedule: Q#A X002 (ip), vehicle: Klucel (hydroxypropylcellulose) (HPC) 116 % of control | dose: 128.0 mg/kg/injection, schedule: Q01DX005 (ip), vehicle: Klucel (hydroxypropylcellulose) (HPC) 113 % of control and 116 % of control | dose: 128.0 mg/kg/injection, schedule: Q## X006 (ip), vehicle: Klucel (hydroxypropylcellulose) (HPC) 106 % of control | dose: 256.0 mg/kg/injection, schedule: Q01DX001 (ip), vehicle: Klucel (hydroxypropylcellulose) (HPC) 96 % of control and 106 % of control and 113 % of control | dose: 256.0 mg/kg/injection, schedule: Q01DX001 (oral), vehicle: Klucel (hydroxypropylcellulose) (HPC) 107 % of control | dose: 256.0 mg/kg/injection, schedule: Q01DX005 (ip), vehicle: saline 92 % of control and 109 % of control | dose: 256.0 mg/kg/injection, schedule: Q01DX005 (oral), vehicle: Klucel (hydroxypropylcellulose) (HPC) 108 % of control | dose: 256.0 mg/kg/injection, schedule: Q## X006 (ip), vehicle: Klucel (hydroxypropylcellulose) (HPC) 115 % of control | dose: 256.0 mg/kg/injection, schedule: Q#A X002 (ip), vehicle: Klucel (hydroxypropylcellulose) (HPC) 114 % of control | dose: 266.0 mg/kg/injection, schedule: Q01DX005 (ip), vehicle: Klucel (hydroxypropylcellulose) (HPC) 113 % of control and 120 % of control | dose: 512.0 mg/kg/injection, schedule: Q01DX005 (ip), vehicle: Klucel (hydroxypropylcellulose) (HPC) 108 % of control | dose: 512.0 mg/kg/injection, schedule: Q## X006 (ip), vehicle: Klucel (hydroxypropylcellulose) (HPC) 105 % of control | dose: 1024.0 mg/kg/injection, schedule: Q01DX001 (ip), vehicle: Klucel (hydroxypropylcellulose) (HPC) 103 % of control and 106 % of control and 112 % of control | dose: 1024.0 mg/kg/injection, schedule: Q01DX001 (oral), vehicle: Klucel (hydroxypropylcellulose) (HPC) 91 % of control and 97 % of control | dose: 1024.0 mg/kg/injection, schedule: Q01DX005 (ip), vehicle: saline 109 % of control | dose: 1024.0 mg/kg/injection, schedule: Q01DX005 (oral), vehicle: Klucel (hydroxypropylcellulose) (HPC) 115 % of control | dose: 1024.0 mg/kg/injection, schedule: Q#A X002 (ip), vehicle: Klucel (hydroxypropylcellulose) (HPC) 99 % of control

CC[C@]12CN3CCc4c([nH]c5ccccc45)[C@@](C(=O)OC)(c4cc5c(cc4OC)N(C)[C@H]4[C@@](O)(C(=O)OC)[C@H](OC(C)=O)[C@]6(CC)C=CCN7CC[C@]54[C@@H]76)CC(C3)[C@H]1O2 (stereo partly drawn)
inactive: dose: 0.05 mg/kg/injection, schedule: Q01DX005 (ip), vehicle: saline 94 % of control | dose: 0.1 mg/kg/injection, schedule: Q01DX005 (ip), vehicle: saline 93 % of control | dose: 0.2 mg/kg/injection, schedule: Q01DX005 (ip), vehicle: saline 93 % of control | dose: 0.4 mg/kg/injection, schedule: Q01DX005 (ip), vehicle: saline 108 % of control | dose: 0.8 mg/kg/injection, schedule: Q01DX005 (ip), vehicle: saline 103 % of control | dose: 1.6 mg/kg/injection, schedule: Q01DX005 (ip), vehicle: saline 103 % of control | dose: 3.2 mg/kg/injection, schedule: Q01DX005 (ip), vehicle: saline 113 % of control | dose: 6.4 mg/kg/injection, schedule: Q01DX005 (ip), vehicle: saline 103 % of control | dose: 12.8 mg/kg/injection, schedule: Q01DX005 (ip), vehicle: saline 103 % of control

C[C@]1(O)CC[C@H]2[C@@H]3CCC4=CC(=O)CC[C@]4(C)[C@@]3(F)[C@@H](O)C[C@@]21C
inactive: dose: 8.0 mg/kg/injection, schedule: Q01DX005 (ip), vehicle: saline with Tween-80 94 % of control and 99 % of control | dose: 16.0 mg/kg/injection, schedule: Q01DX005 (ip), vehicle: saline with Tween-80 93 % of control and 104 % of control | dose: 32.0 mg/kg/injection, schedule: Q01DX005 (ip), vehicle: saline with Tween-80 102 % of control and 105 % of control | dose: 64.0 mg/kg/injection, schedule: Q01DX005 (ip), vehicle: saline with Tween-80 93 % of control and 96 % of control | dose: 128.0 mg/kg/injection, schedule: Q01DX005 (ip), vehicle: saline with Tween-80 93 % of control and 96 % of control | dose: 256.0 mg/kg/injection, schedule: Q01DX005 (ip), vehicle: saline with Tween-80 94 % of control and 100 % of control | dose: 512.0 mg/kg/injection, schedule: Q01DX005 (ip), vehicle: saline with Tween-80 93 % of control and 103 % of control

CCOC(=O)C(C)(C)Oc1ccc(Cl)cc1
inactive: dose: 100.0 mg/kg/injection, schedule: Q01DX005 (ip), vehicle: saline with Tween-80 96 % of control | dose: 200.0 mg/kg/injection, schedule: Q01DX005 (ip), vehicle: saline with Tween-80 93 % of control

CN(N=O)C(N)=O
inactive: dose: 2.5 mg/kg/injection, schedule: Q01DX001 (ip), vehicle: Klucel (hydroxypropylcellulose) (HPC) 120 % of control | dose: 5.0 mg/kg/injection, schedule: Q01DX001 (ip), vehicle: Klucel (hydroxypropylcellulose) (HPC) 124 % of control | dose: 80.0 mg/kg/injection, schedule: Q01DX001 (ip), vehicle: Klucel (hydroxypropylcellulose) (HPC) 97 % of control

CC(=O)[C@]1(O)Cc2c(O)c3c(c(O)c2[C@@H](OC2CC(N)C(O)C(C)O2)C1)C(=O)c1c(O)cccc1C3=O (stereo partly drawn)
inactive: dose: 7.8 micrograms/kg/injection, schedule: Q01DX005 (ip), vehicle: suspension in saline 102 % of control | dose: 15.6 micrograms/kg/injection, schedule: Q01DX005 (ip), vehicle: suspension in saline 104 % of control | dose: 31.0 micrograms/kg/injection, schedule: Q01DX005 (ip), vehicle: suspension in saline 101 % of control | dose: 62.5 micrograms/kg/injection, schedule: Q01DX005 (ip), vehicle: suspension in saline 99 % of control | dose: 125.0 micrograms/kg/injection, schedule: Q01DX005 (ip), vehicle: suspension in saline 114 % of control
